From ChEMBL document CHEMBL5696442, “Discovery of type II inhibitors of TGFβ-activated kinase 1 (TAK1) and mitogen-activated protein kinase kinase kinase kinase 2 (MAP4K2)” (J Med Chem, 2015)

What was measured:
[1] = target: Macrophage colony-stimulating factor 1 receptor (Homo sapiens) (UniProt P07333); experiment: Inhibition of CSF1R (unknown origin) at 10 uM by Ambit Kinomescan binding assay relative to control
[2] = target: Mitogen-activated protein kinase kinase kinase 4 (Homo sapiens) (UniProt Q9Y6R4); experiment: Inhibition of MAP3K4 K2 labeling site in human Huh-7 cells at 10 uM by KiNativ Profiling analysis relative to control; format: cell-based
Chain of Mitogen-activated protein kinase kinase kinase 4 (Homo sapiens) (Q9Y6R4 whole entry): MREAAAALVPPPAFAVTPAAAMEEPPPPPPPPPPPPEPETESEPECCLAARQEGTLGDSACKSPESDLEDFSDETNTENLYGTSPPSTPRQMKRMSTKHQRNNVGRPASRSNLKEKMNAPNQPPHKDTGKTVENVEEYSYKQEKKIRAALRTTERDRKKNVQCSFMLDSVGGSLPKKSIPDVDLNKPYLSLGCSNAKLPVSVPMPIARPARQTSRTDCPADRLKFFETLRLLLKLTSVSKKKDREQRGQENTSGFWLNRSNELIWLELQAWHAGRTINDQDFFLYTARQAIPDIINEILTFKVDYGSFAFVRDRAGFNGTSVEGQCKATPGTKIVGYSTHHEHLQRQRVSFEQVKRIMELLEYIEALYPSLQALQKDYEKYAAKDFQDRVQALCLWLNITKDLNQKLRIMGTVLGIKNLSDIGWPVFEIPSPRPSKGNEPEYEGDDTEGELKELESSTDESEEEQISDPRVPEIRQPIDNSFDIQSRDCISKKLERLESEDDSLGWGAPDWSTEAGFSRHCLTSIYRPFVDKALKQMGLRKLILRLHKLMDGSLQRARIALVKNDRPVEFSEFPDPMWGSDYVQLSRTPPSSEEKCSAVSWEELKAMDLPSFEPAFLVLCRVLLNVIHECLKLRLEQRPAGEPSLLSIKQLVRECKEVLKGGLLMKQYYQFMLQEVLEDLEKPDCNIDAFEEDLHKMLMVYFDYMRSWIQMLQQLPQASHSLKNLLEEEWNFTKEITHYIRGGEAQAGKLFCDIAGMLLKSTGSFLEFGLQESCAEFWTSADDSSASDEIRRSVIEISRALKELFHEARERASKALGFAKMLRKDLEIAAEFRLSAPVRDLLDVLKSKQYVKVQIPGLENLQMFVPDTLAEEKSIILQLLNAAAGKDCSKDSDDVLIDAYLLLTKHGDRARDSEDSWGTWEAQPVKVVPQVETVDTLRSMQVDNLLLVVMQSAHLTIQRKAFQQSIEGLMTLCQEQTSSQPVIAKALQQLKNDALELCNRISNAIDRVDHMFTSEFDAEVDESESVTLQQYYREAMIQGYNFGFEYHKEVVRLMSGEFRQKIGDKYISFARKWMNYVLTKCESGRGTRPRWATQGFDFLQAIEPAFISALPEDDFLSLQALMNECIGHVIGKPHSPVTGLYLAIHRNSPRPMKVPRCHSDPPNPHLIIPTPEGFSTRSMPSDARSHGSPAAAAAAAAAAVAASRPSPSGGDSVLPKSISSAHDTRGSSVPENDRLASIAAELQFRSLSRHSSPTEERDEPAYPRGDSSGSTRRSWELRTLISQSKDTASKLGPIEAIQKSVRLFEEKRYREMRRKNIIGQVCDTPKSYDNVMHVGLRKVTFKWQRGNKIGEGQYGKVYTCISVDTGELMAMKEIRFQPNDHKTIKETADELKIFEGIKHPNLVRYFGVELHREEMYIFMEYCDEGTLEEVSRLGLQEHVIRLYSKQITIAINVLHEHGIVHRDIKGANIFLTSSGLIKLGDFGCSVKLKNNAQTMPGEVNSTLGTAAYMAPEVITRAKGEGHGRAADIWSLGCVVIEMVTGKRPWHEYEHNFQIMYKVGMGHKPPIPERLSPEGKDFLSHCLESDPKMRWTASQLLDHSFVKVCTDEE

[3] = target: Peripheral plasma membrane protein CASK (Homo sapiens) (UniProt O14936); experiment: Inhibition of CASK K1 labeling site in human Huh-7 cells at 1 uM by KiNativ Profiling analysis relative to control
[4] = target: T1, Mitogen-activated protein kinase kinase kinase 5 (Homo sapiens) (UniProt Q99683); experiment: Inhibition of MAP3K5 Lys2 labeling site in human A-375 cells at 0.05 uM by KiNativ Profiling analysis relative to control; format: cell-based
T1 sequence (whole entry): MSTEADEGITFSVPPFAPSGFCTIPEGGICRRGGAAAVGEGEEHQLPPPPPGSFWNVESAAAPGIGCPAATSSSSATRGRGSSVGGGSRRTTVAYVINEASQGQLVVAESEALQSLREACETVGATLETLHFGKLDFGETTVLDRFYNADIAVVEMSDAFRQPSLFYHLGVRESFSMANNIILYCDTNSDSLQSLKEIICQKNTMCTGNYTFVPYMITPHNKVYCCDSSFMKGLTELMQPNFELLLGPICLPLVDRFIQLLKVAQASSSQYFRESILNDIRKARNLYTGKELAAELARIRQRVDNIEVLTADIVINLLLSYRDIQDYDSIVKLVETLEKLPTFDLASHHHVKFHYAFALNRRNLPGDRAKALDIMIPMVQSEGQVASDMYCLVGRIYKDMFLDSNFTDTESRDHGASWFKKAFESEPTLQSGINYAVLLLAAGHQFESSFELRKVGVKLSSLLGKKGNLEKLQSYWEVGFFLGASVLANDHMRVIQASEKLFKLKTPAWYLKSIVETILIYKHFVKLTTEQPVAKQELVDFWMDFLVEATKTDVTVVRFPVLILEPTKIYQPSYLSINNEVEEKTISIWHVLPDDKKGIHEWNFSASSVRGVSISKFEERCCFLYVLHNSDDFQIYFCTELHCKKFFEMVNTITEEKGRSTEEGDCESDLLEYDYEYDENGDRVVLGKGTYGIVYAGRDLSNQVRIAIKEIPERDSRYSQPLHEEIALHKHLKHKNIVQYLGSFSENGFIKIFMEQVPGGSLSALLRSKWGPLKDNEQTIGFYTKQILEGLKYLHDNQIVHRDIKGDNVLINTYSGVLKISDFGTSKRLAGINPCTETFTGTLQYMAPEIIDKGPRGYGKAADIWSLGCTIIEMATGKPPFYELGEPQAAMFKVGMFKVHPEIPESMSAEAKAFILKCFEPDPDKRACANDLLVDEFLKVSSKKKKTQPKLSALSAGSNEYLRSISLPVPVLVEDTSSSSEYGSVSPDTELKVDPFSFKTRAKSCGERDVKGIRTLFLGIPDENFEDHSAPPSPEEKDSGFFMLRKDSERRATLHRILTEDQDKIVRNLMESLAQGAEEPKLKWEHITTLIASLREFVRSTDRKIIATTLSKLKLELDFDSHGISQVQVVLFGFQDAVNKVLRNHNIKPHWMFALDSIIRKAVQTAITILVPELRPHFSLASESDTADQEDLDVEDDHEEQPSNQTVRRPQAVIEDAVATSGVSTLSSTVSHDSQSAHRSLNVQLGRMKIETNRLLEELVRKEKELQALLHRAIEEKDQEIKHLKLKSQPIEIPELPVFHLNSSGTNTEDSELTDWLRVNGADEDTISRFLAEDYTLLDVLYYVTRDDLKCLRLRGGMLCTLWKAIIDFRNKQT

[5] = target: Serine/threonine-protein kinase 24 (Homo sapiens) (UniProt Q9Y6E0); experiment: Inhibition of MST3 K2 labeling site harbouring DIKAANVLLSEHGEVK in human Huh-7 cells at 1 uM by KiNativ Profiling analysis relative to control; format: cell-based
Chain of Serine/threonine-protein kinase 24 (Homo sapiens) (Q9Y6E0 whole entry, looked up): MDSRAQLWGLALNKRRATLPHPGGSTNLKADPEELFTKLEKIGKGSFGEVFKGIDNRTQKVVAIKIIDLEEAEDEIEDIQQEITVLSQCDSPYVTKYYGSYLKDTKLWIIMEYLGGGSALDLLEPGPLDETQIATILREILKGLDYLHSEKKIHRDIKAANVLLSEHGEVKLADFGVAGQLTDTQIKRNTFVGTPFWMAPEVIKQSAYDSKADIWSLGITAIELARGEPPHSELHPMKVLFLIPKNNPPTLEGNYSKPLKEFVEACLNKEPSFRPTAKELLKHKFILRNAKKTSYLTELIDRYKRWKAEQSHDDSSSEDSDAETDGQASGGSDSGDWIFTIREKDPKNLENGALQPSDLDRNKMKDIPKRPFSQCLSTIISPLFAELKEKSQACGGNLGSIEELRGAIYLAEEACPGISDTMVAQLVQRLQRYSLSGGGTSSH

[6] = target: Cyclin-dependent kinase 14 (Homo sapiens) (UniProt O94921); experiment: Inhibition of PFTAIRE1 Lys1 labeling site in human A-375 cells at 0.05 uM by KiNativ Profiling analysis relative to control
[7] = target: Mitogen-activated protein kinase 14 (Homo sapiens, UniProt Q16539); experiment: Inhibition of p38alpha K2 labeling site in human Huh-7 cells at 1 uM by KiNativ Profiling analysis relative to control; format: cell-based
Chain of Mitogen-activated protein kinase 14 (Q16539 whole entry): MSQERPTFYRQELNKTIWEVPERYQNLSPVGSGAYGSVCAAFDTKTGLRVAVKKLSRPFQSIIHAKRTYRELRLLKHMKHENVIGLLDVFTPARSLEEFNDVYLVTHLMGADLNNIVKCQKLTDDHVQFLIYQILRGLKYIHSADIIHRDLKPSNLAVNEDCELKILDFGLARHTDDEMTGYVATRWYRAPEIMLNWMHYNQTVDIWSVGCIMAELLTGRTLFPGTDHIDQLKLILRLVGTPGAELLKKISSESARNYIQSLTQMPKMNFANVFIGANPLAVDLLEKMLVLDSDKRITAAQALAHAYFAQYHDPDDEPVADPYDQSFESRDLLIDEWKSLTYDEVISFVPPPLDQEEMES

[8] = target: Serine/threonine-protein kinase Nek3 (Homo sapiens) (UniProt P51956); experiment: Inhibition of NEK3 ACT labeling site in human Huh-7 cell lysate at 1 uM by KiNativ Profiling analysis relative to control; format: subcellular
Chain of Serine/threonine-protein kinase Nek3 (Homo sapiens) (P51956 whole entry): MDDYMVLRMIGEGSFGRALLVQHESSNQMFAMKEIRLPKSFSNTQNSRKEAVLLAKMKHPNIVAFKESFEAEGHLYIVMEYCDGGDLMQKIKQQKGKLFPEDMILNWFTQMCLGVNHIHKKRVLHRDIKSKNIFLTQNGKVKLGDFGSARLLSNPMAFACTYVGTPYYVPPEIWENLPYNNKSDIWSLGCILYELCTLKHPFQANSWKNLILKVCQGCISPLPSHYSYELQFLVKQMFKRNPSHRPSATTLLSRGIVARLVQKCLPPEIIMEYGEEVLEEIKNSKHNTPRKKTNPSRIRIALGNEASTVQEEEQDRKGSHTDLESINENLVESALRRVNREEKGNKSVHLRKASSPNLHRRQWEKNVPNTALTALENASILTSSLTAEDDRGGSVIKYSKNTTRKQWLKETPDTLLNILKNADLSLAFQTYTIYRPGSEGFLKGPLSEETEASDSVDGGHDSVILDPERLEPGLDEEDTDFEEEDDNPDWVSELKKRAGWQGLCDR

[9] = Inhibition of KHS2 Lys1 labeling site in human Huh-7 cell lysate at 1 uM by KiNativ Profiling analysis relative to control; conditions: condition cancer
[10] = target: Proto-oncogene tyrosine-protein kinase Src (Homo sapiens, UniProt P12931); experiment: Inhibition of SRC (unknown origin) at 1 uM by Ambit Kinomescan binding assay relative to control
Chain of Proto-oncogene tyrosine-protein kinase Src (P12931 2-536 limits assumed): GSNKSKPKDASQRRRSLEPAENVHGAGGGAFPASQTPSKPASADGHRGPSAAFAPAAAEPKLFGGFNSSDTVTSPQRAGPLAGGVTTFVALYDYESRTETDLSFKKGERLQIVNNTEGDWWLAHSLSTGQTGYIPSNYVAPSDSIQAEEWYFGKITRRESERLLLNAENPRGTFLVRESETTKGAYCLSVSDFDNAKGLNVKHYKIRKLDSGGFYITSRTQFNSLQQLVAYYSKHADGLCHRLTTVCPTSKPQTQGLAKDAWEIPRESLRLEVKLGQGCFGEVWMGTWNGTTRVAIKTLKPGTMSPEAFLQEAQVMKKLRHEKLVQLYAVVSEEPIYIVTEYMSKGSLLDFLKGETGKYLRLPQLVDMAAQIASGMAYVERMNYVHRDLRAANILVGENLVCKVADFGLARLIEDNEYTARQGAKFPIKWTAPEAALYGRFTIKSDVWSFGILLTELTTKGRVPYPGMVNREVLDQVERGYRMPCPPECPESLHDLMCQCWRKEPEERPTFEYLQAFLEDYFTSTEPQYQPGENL

[11] = target: Tyrosine-protein kinase Fer (Homo sapiens, UniProt P16591); experiment: Inhibition of FER (unknown origin) at 1 uM by Ambit Kinomescan binding assay relative to control; values are per cent of control
Chain of Tyrosine-protein kinase Fer (P16591 whole entry, looked up): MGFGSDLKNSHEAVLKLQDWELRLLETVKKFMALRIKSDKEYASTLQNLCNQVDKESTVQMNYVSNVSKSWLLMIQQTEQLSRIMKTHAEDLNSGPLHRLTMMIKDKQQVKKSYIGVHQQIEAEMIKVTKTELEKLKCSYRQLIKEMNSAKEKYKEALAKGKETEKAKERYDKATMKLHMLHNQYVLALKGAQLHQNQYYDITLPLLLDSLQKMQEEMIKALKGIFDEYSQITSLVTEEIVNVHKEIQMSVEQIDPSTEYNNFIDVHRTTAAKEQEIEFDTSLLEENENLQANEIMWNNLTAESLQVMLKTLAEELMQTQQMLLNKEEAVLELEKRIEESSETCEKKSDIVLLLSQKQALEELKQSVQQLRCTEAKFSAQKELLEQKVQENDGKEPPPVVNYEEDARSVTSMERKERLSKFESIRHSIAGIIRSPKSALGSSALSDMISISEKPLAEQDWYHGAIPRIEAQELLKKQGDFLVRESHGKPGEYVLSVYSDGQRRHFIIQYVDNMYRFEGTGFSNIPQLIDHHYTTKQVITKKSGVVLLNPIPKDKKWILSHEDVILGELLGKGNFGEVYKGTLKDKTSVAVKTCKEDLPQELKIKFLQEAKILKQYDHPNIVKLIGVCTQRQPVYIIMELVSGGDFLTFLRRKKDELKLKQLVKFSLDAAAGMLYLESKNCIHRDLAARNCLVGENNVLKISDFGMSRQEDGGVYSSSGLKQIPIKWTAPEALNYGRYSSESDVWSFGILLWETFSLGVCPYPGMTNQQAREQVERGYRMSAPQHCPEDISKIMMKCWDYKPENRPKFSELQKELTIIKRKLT

[12] = target: Tyrosine-protein kinase ITK/TSK (Homo sapiens) (UniProt Q08881); experiment: Inhibition of ITK (unknown origin) at 1 uM by Ambit Kinomescan binding assay relative to control
Chain of Tyrosine-protein kinase ITK/TSK (Homo sapiens) (Q08881 whole entry): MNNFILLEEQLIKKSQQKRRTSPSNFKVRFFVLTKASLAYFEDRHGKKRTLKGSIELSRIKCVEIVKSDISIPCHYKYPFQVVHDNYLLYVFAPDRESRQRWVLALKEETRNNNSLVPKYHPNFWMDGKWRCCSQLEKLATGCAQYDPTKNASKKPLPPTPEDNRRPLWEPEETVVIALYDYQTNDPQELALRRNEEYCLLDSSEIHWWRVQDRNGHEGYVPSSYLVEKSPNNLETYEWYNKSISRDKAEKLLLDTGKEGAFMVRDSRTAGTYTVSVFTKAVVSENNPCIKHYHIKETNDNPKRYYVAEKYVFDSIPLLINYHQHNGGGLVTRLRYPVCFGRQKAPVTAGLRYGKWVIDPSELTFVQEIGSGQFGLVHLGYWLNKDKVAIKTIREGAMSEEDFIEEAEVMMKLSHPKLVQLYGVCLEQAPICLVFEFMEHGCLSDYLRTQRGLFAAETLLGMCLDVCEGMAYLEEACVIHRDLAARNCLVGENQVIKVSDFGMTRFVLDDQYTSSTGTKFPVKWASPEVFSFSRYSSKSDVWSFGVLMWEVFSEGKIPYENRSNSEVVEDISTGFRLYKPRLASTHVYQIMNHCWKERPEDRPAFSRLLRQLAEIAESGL

With `CCN1CCN(Cc2ccc(NC(=O)c3ccc(C)c(Oc4ccnc5[nH]ccc45)c3)cc2C(F)(F)F)CC1` the inhibition [1] was 0%, the inhibition [2] was 5.2% and the inhibition [3] was 3.8%. The inhibition [4] was -6.6%, the inhibition [5] was -7.8% and the inhibition [6] was 8.3%. It also gave an inhibition [7] of 7.1%.

Work on `CNc1cc(Oc2cc(C(=O)Nc3cc(N4CCN(C)CC4)cc(C(F)(F)F)c3)ccc2C)ncn1` yielded an inhibition [8] of 9.3% and an inhibition at 1 µM [9] of 0.9%.

Work on `CCN1CCN(Cc2ccc(NC(=O)c3ccc(C)c(/C=C/c4cnc5[nH]ccc5c4OC)c3)cc2C(F)(F)F)CC1` yielded an inhibition [10] of 2.8%, a residual activity [11] of 21% and an inhibition [12] of 81%.
